Data on nine compounds can be found in ChEMBL document CHEMBL3997834, “Phenolic compounds isolated from Dioscorea zingiberensis protect against pancreatic acinar cells necrosis induced by sodium taurocholate” (Bioorg Med Chem Lett, 2017).

Data set [1] deals with Pancreatic acinar cell. As to the kind of experiment: (§1) Cytoprotective activity against sodium taurocholate-induced necrosis in Balb/C mouse pancreatic acinar cells at 0.5 mM after 40 mins by propidium iodide/Hoechst 33342 staining-based fluorescence microscopic method. It is filed as functional.
Data set [2] is described as follows: Cytoprotective activity against sodium taurocholate-induced necrosis in Balb/C mouse pancreatic acinar cells assessed as decrease in intracellular reactive oxygen species generation at 0.5 mM measured for 20 mins by H2-DCFDA probe-based fluorescence assay relative to control. The format is functional, Pancreatic acinar cell. On the set-up: scale not given: the % may be the effect or the level left.

Data set [3] relates to Pancreatic acinar cell. Kind of data set: Cytoprotective activity against sodium taurocholate-induced necrosis in Balb/C mouse pancreatic acinar cells at 1 mM after 40 mins by propidium iodide/Hoechst 33342 staining-based fluorescence microscopic method. It is filed as functional.
Data set [4] is described as follows: as §1. It is filed as functional, Pancreatic acinar cell.
The nature of data set [5]: Cytotoxicity against Balb/C mouse pancreatic acinar cells at 1 mM after 40 mins by propidium iodide/Hoechst 33342 staining-based fluorescence microscopic method. The conditions noted are these: pancreatic acinar cell, 1000 µM.
The nature of data set [6]: Cytoprotective activity against sodium taurocholate-induced necrosis in Balb/C mouse pancreatic acinar cells assessed as intracellular ATP production at 0.5 mM measured at 40 mins by luminescence assay (reference value: 21.5%). It is filed as functional, Pancreatic acinar cell.
Data set [7] in a line: Cytoprotective activity against sodium taurocholate-induced necrosis in Balb/C mouse pancreatic acinar cells assessed as intracellular ATP production at 0.5 mM measured at 20 mins by luminescence assay (reference value: 39.9%). It is filed as functional, Pancreatic acinar cell.
For data set [8], the system named is Pancreatic acinar cell. Kind of data set: Cytoprotective activity against sodium taurocholate-induced necrosis in Balb/C mouse pancreatic acinar cells at 5 mM after 40 mins by propidium iodide/Hoechst 33342 staining-based fluorescence microscopic method. It is filed as functional.

The source made the active and inactive calls. The rule behind the calls is not given here.

As for `Oc1ccc(CC[C@@H](O)C[C@H](O)CCc2ccc(O)cc2)cc1`, the result in the data set on Pancreatic acinar cell [1] was Active. In the case of `COc1cc(CC[C@@H](O)C[C@H](O)CCc2ccc(O)c(OC)c2)ccc1O`, the outcome in the data set on Pancreatic acinar cell [1] was Active. On to `Oc1ccc(CC[C@@H](O)C[C@H](O)CCc2ccc(O)c(O)c2)cc1`, for which the Activity in data set [2] is 27.9%; in data set [4], 19%; in data set [5], “Toxic”; in data set [6], 38.3%; in data set [7], 59.4%. Also, the outcome in the data set on Pancreatic acinar cell [3] was inactive. With `COc1cc(O)cc(CCc2ccc(OC)c(O)c2)c1`, in the data set on Pancreatic acinar cell [1], the outcome was inactive.

As for `COc1c(O)cc(CCc2ccccc2)cc1O`, the outcome in the data set with Pancreatic acinar cell [1] was inactive.

`COc1ccc2c(c1O)-c1c(cc(O)cc1OC)CC2`: in the data set on Pancreatic acinar cell [1], the result was inactive. For the compound `Cn1c(=O)c2c(ncn2C)n(C)c1=O`, the result in the data set with Pancreatic acinar cell [8] was Active. For `COc1ccc(CCc2cc(O)c(OC)c(O)c2)cc1`, the outcome in the data set on Pancreatic acinar cell [1] was inactive. The same measure, in the same setting: the same measure for `COc1cc(CC[C@@H](O)C[C@H](O)CCc2ccc(O)cc2)ccc1O`: “Active”.
